This note sets out measurements from the METLIN SMRT retention time set (Domingo-Almenara et al. 2019).

The nature of the series: gradient 5% acetonitrile 3 min, to 50% in 2 min, to 85% in 15 min, held 3 min, 100 µL/min. Particulars: column: Zorbax Extend-C18 2.1 x 50 mm; eluents: water / acetonitrile, 0.1% formic acid. In short, it runs like this:
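A Zorbax Extend-C18 column (2.1 × 50 mm, 1.8 μm) run at 100 μL/min with water and acetonitrile, both containing 0.1% formic acid, separated mixtures of ~100 pure standards. The HPLC was coupled to a quadrupole time-of-flight mass spectrometer operated in positive and negative ionization mode, with dead and dwell volumes of 40 μL and 900 μL. Each retention time was taken from a computationally picked adduct peak that was then manually inspected.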
Turning to `CCc1ccc(NC(=O)N2CCC(C(=O)NCc3csc(C)n3)CC2)cc1`, the RP-LC retention time is 660 s.

`CN(C(=O)Cn1cncc(C(=O)NC2CCCC2)c1=O)c1ccccc1` had an RP-LC retention time of 767 s.

`COc1nc2ccccc2nc1N1CCCC(C(=O)NC2CCCCC2C)C1` (stereo not given): the RP-LC retention time amounted to 1090 s.

As for `COc1ccc(Cl)cc1NC(=O)N1CCC(C(=O)Nc2cc(C)on2)CC1`, the RP-LC retention time was 645 s.

The compound `CCc1cccc(C)c1Nc1c(-c2ccc(F)cc2)nc2cnccn12` registered an RP-LC retention time of 1010 s.

Compound `N#Cc1ccsc1NC(=O)NC(c1ccccc1)c1ccccc1` yielded an RP-LC retention time of 947 s.

Compound `Cc1ccc(N2CCn3c2nc2c3c(=O)n(CC(=O)O)c(=O)n2C)cc1C` came in with an RP-LC retention time of 771 s.

Regarding `Cc1noc2ncnc(N3CCCC(C(=O)N4CCN(Cc5ccc6c(c5)OCO6)CC4)C3)c12` (stereo not given), the RP-LC retention time was determined as 611 s.

In turn, `CN1C(=O)c2cccnc2Sc2cc(C(=O)NC3CCCC3)ccc21` yielded an RP-LC retention time of 726 s.

`O=C(CSc1ccc(N2CCCC(C(=O)NC3CC3)C2)nn1)Nc1cccc(Cl)c1` (stereo not given) returned an RP-LC retention time of 689 s.

`Cc1ccc(Sc2cncc3sc(C(N)=O)cc23)cc1` displayed an RP-LC retention time of 836 s.

In the case of `CC(C)c1ccc(NC(=O)C(=O)NC2CC(C)(C)NC(C)(C)C2)cc1`, the RP-LC retention time is 712 s.

As to `CCCc1cc(=O)n(CC(=O)Nc2ncccc2C)cn1`, the RP-LC retention time was 578 s.

On to `Cc1nc(-c2noc(-c3ccncc3)n2)cn1CC(=O)Nc1cccc(Cl)c1`, for which the RP-LC retention time was found to be 760 s.

In the case of `CCc1nc2cc(-c3noc(-c4nn(C)c5ccccc45)n3)ccc2o1`, the RP-LC retention time came out at 1130 s.

In turn, `CCC(=O)N1CCc2cc(-c3ccc(C(=O)NCc4ccco4)cc3)ccc21` displayed an RP-LC retention time of 849 s.

Compound `CN(Cc1ccccc1)Cc1nc(-c2ccc(N3CCSCC3)nc2)no1` showed an RP-LC retention time of 837 s.

Compound `CCOc1ccc(C2C(C(=O)OCCOC)=C(C)NC3=C2C(=O)CCC3)cc1OC` (stereo not given) showed an RP-LC retention time of 700 s.

Take `COc1cccc(-n2ccc(=O)c(-c3nc(-c4cccc(F)c4)no3)n2)c1`: the RP-LC retention time worked out at 905 s.

As for `CCn1nccc1C(=O)Nc1nnc(-c2ccsc2)o1`, the RP-LC retention time worked out at 641 s.

`O=C(O)C1CCCCC1C(=O)NCCc1csc(-c2cccnc2)n1` (stereo not given) registered an RP-LC retention time of 593 s.

Turning to `CCOC(=O)C1=C(C)NC2=C(C(=O)c3ccccc32)C1c1ccccc1OCC` (stereo not given), the RP-LC retention time was 961 s.

As for `Cc1ccc(S(=O)(=O)N2CCC(CCC(=O)NC3CCS(=O)(=O)C3)CC2)cc1` (stereo not given), the RP-LC retention time came out at 740 s.

`Cn1c(=O)c(SCC(=O)NCCN2CCCCC2)nc2ccccc21` displayed an RP-LC retention time of 594 s.

`CC1(C(=O)NCc2ccc(F)cc2)CCN(C(=O)Nc2ccccc2C(F)(F)F)CC1` returned an RP-LC retention time of 877 s.

`COc1ccccc1C(=O)N1CCC2(CC1)NC(=O)c1cc(Cl)ccc1N2C`: the RP-LC retention time turned out to be 787 s.

In turn, `CCc1nc2cc(-c3noc(-c4cc(OC)cc(OC)c4)n3)ccc2o1` showed an RP-LC retention time of 1210 s.

With `Cc1ccc(-c2nc3cnccn3c2NCCC(=O)NCc2cccs2)cc1`, the RP-LC retention time came out at 700 s.

`CCCCCc1c(C)nn(-c2nc(CC(=O)Nc3nc4ccccc4[nH]3)cs2)c1C` yielded an RP-LC retention time of 995 s.

`Cn1cc(C2c3ccccc3C(=O)N2CC(N)=O)c2ccccc21` (stereo not given): the RP-LC retention time was 696 s.

On to `O=S(=O)(c1cccc(F)c1)N1CCC(c2noc(-c3ccc(F)cc3)n2)CC1`, for which the RP-LC retention time was determined as 1110 s.

`CC(=O)c1ccc(N2CCN(C(=O)CN3C(=S)NC(C)(C)CC3C)CC2)cc1` (stereo not given) gave an RP-LC retention time of 716 s.

The compound `CN(C)S(=O)(=O)c1ccc2c(c1)N(CC(=O)NCc1cccc(F)c1)C(=O)C1CCCCN21` (stereo not given) showed an RP-LC retention time of 900 s.

In turn, `COc1ccc(-c2noc(C3CCCN3C(=O)c3cccc(OC)c3)n2)cc1` (stereo not given) displayed an RP-LC retention time of 937 s.

On to `Cc1cc(NC(=O)CN2C(=O)NC(c3ccccc3Cl)C3=C2COC3=O)ccc1Br` (stereo not given), for which the RP-LC retention time was determined as 887 s.

`CCN(CC)C(=O)c1ccc(-c2nnc3ccc(NC(=O)C4CCC4)cn23)cc1` yielded an RP-LC retention time of 745 s.

For the compound `O=C(c1ccc(F)cc1Cl)N1CCc2nc(-c3ccc(Cl)cc3)ncc2C1`, the RP-LC retention time came to 1160 s.

Turning to `O=C(NCc1ccco1)N1c2ccccc2CC1c1nc(C2CC2)no1` (stereo not given), the RP-LC retention time came to 891 s.

Consider `Cc1cc(Cl)ccc1NC(=O)N1C[C@@H]2C[C@H]1C[C@@H]2NS(=O)(=O)c1ccccc1`, for which the RP-LC retention time came to 883 s.

With `C=CCNC(=O)N1CCCN(C2=NS(=O)(=O)C(c3ccc(CC)cc3)=C2C)CC1`, the RP-LC retention time is 790 s.

As for `CSc1ncccc1-c1nc(-c2ccc3c(c2)ncn3CCN2CCCCC2)no1`, the RP-LC retention time was found to be 649 s.

`COCCC(=O)NC1CCN(c2ccc(C)c(C)c2)C1=O` (stereo not given) had an RP-LC retention time of 688 s.

`Cc1sc(-c2cc(C(F)(F)F)on2)cc1S(=O)(=O)Nc1ccc(F)cc1` showed an RP-LC retention time of 1120 s.

For the compound `COc1ccc(OC)c2c(C)cc(N3CCN(S(=O)(=O)c4ccc(C)cc4)CC3)nc12`, the RP-LC retention time came out at 798 s.

In turn, `CCc1noc(-c2cccnc2N2CCCN(Cc3ccc(F)cc3Cl)CC2)n1` displayed an RP-LC retention time of 700 s.

Compound `O=C(Nc1cccc(-c2ccc(N3CCOCC3)nn2)c1)Nc1cc(F)ccc1F` returned an RP-LC retention time of 738 s.

`CN1C(=O)c2cccnc2Sc2cc(NC(=O)c3ccncc3)ccc21` registered an RP-LC retention time of 606 s.

The compound `CCN1CCN(C(=O)Cc2c(C)nn(-c3nc(-c4ccc(C)cc4)cs3)c2C)CC1` returned an RP-LC retention time of 730 s.

In turn, `CC(Cc1ccco1)NC(=O)CCCn1c2ccccc2c2cnn(C)c(=O)c21` (stereo not given) returned an RP-LC retention time of 775 s.

The compound `CC(C)CC(C(=O)N1CCOCC1)N1CC2=C(C1=O)C(c1ccccc1Cl)NC(=O)N2C` (stereo not given) had an RP-LC retention time of 894 s.

In the case of `CC1(C)COc2ccc(NC(=O)c3ccc(Br)o3)cc2NC1=O`, the RP-LC retention time was 824 s.

In the case of `O=C(C1CCCN(c2ncnc3c2nc2n3CCCCC2)C1)N1CCC(Cc2ccccc2)CC1` (stereo not given), the RP-LC retention time was determined as 1000 s.

Take `Cc1oc(C2CCN(C(=O)C3CCN(S(=O)(=O)N4CCOCC4)CC3)CC2)nc1C(=O)N1CCCC1`: the RP-LC retention time came out at 677 s.

`O=C(Cn1cnc2ccccc21)N1CCN(Cc2nc(-c3ccc(F)cc3)cs2)CC1` yielded an RP-LC retention time of 586 s.

Take `CCOC(=O)c1ccc(NC(=O)N2CCN(c3nc4ccccc4n3C)CC2)cc1`: the RP-LC retention time turned out to be 658 s.

Turning to `Cc1cccc(CNC(=O)C2CCCN(C(=O)C3Sc4ccccc4NC3=O)C2)c1` (stereo not given), the RP-LC retention time was 762 s.

Consider `COCCN1CCC2(CC1)CN(Cc1cc(OC)ccc1OC)Cc1ccccc1O2`, for which the RP-LC retention time came out at 597 s.

Compound `COc1ccc(S(=O)(=O)N2CCC(c3noc(-c4ccc(C)cc4)n3)CC2)cc1` returned an RP-LC retention time of 1150 s.

In the case of `O=c1c2cc(-c3ccc(F)cc3)nn2ccn1CC(O)c1ccc(F)cc1` (stereo not given), the RP-LC retention time was found to be 859 s.

`O=C1NCCCCCN(C(=O)c2ccc(Cn3ccnc3)o2)[C@H]2CCC[C@@H]12`: the RP-LC retention time came out at 567 s.

`COc1ccc(CNC(=O)Cn2c(=O)cc(-c3nc(C)no3)c3ccccc32)cc1OC`: the RP-LC retention time turned out to be 746 s.

In turn, `COc1ccc(NC(=O)c2cn(-c3ccc(C#N)cc3)cn2)cc1OC` had an RP-LC retention time of 683 s.

In turn, `CC(=O)N1CCC2(CC1)C(=O)N(C)c1ccccc12` gave an RP-LC retention time of 665 s.

The compound `Fc1cc(F)cc(-c2nc(-c3cccc(-c4ccn[nH]4)c3)no2)c1` displayed an RP-LC retention time of 1060 s.

`O=C(NCC1CCCO1)c1cn2ccccc2n1` (stereo not given) returned an RP-LC retention time of 565 s.

Regarding `Cc1ccccc1CSc1nnc(-c2ccccc2Cl)o1`, the RP-LC retention time came out at 1180 s.

Regarding `Cc1oc(-c2ccc(C(=O)NCCCN3CCOCC3)cc2)nc1CSc1ccccc1`, the RP-LC retention time stood at 685 s.

`O=C(NCCC1=CCCCC1)C1CCCN(c2ncc(-c3cccc(F)c3)cn2)C1` (stereo not given) came in with an RP-LC retention time of 1220 s.

The compound `COCCC1CCN(C(=O)COc2ccc(OC)cc2)CC1` returned an RP-LC retention time of 768 s.

On to `CC1CCN(c2cc(-c3noc(C(=O)N4CCCC4)n3)ccn2)CC1`, for which the RP-LC retention time was 764 s.

`CCn1cc(CCNC(=O)Nc2ccsc2C(=O)OC)c2cccnc21` yielded an RP-LC retention time of 762 s.

In turn, `Cc1nnc(-c2ccc(S(=O)(=O)NCc3ccco3)o2)o1` registered an RP-LC retention time of 722 s.

Regarding `CCc1cccc(NC(=O)Cn2nc(N3CCCC3)c3ccccc3c2=O)c1`, the RP-LC retention time amounted to 1000 s.

`Cc1cccc(S(=O)(=O)N(C)CC2(C)CCOCC2)c1` yielded an RP-LC retention time of 918 s.

Turning to `Cc1cc(C)n2nc(SCC(=O)NC(C)C)nc2n1`, the RP-LC retention time amounted to 613 s.

As for `O=C(CN1CCCC1=O)NCc1ccc(F)c(Cl)c1`, the RP-LC retention time was found to be 667 s.

Regarding `C=CCc1ccccc1OCC(O)CNC` (stereo not given), the RP-LC retention time worked out at 566 s.

`Cc1cnc(C2CN(C(=O)C3(c4ccccc4)CC3)C2)n1Cc1cccnc1` gave an RP-LC retention time of 585 s.

In the case of `Cc1cc(Cl)ccc1NC(=O)Cn1cnc2nc3c(cc2c1=O)CCCC3`, the RP-LC retention time worked out at 770 s.

As to `CCc1ccc(N2C(=O)CN(S(C)(=O)=O)CC2(C)C(=O)NCc2ccc(C)cc2)cc1` (stereo not given), the RP-LC retention time was found to be 898 s.
